Values of other authors, collected in patent publication US11497741B2, “Granules containing diamine derivative” (DAIICHI SANKYO COMPANY, LIMITED, priority 2018, dated 2022).

CN1CCc2nc(C(=O)N[C@@H]3C[C@@H](C(=O)N(C)C)CC[C@@H]3NC(=O)C(=O)Nc3ccc(Cl)cn3)sc2C1 [Edoxaban, N^1-(5-Chloropyridin-2-yl)-N^2-((1S,2R,4S)-4-[(dimethylamino)carbonyl]-2-{[(5-methyl-4,5,6,7-tetrahydrothiazolo[5,4-c]pyridin-2-yl)carbonyl]amino}cyclohexyl)ethanediamide]
solubility (water solubility) (neutral aqueous solution (neutral buffer solution)): reduced solubility | solubility (strongly acidic aqueous solution): good solubility
